pIC50: −log10 of the molar value.
biological target: T1, SARM1 (50-724) (Homo sapiens, UniProt Q6SZW1); test: biochemical
T1 sequence (Q6SZW1 50-724): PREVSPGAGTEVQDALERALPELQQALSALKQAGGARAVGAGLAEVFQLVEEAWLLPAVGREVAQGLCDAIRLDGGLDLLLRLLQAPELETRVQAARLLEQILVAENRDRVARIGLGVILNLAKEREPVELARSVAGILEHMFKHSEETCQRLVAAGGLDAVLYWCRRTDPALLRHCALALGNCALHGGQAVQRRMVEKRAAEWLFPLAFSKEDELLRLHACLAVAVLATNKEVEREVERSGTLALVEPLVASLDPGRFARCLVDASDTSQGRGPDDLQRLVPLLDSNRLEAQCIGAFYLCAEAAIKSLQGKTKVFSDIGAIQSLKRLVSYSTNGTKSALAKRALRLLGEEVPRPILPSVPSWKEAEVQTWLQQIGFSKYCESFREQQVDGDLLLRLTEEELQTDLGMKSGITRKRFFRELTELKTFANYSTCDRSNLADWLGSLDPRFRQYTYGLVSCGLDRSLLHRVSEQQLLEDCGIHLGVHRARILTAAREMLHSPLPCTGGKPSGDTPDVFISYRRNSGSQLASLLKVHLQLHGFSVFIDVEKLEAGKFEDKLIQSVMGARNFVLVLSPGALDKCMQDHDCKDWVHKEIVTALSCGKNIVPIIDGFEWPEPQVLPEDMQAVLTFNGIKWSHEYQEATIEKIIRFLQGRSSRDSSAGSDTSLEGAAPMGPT
Protocol: An enzymatic assay was performed in a 384-well plate using Dulbecco's phosphate-buffered saline (PBS) as the reaction buffer. […] The reaction was initiated by adding a mixture of 200 μM nicotinamide mononucleotide (NMN) as activator and 100 μM NAD^+ as substrate. After 1 h of incubation at room temperature, the reaction was terminated with 10 times volume of 70% acetonitrile, then centrifuged at 3800 rpm for 10 min.

Row | Structure (SMILES) | pIC50
1 | CC(Nc1ccc2c(c1)C(=O)NCC2)c1ccc(Cl)c(Cl)c1 (racemic) [Example 104, 7-((1-(3,4-dichlorophenyl)ethyl)amino)-3,4-dihydroisoquinolin-1(2H)-one] | 6.00 to 6.30
2 | Cc1nc(C(C)Nc2ccc3cc[nH]c(=O)c3c2)c(Cl)n1C (racemic) [Compound 214, 7-((1-(5-chloro-1,2-dimethyl-1H-imidazol-4-yl)ethyl)amino)isoquinolin-1(2H)-one] | 6.30 to 7.00
3 | CC1(C)CN(C(=O)c2ccccn2)c2cc(NS(=O)(=O)c3cccc(Cl)c3Cl)ccc21 [Compound 281, 2,3-dichloro-N-(3,3-dimethyl-1-picolinoylindolin-6-yl)benzenesulfonamide] | > 7.00
4 | O=C1NC(CO)CCc2ccc(NS(=O)(=O)c3cccc(Cl)c3Cl)cc21 (single isomer, unassigned) [Compound 304B] | 6.00 to 6.30
5 | CC1(C)C(=O)N(CC(N)=O)c2cc(NS(=O)(=O)c3cccc(Cl)c3Cl)ccc21 [Compound 255, 2-[6-[(2,3-dichlorophenyl)sulfonylamino]-3,3-dimethyl-2-oxo-indolin-1-yl]acetamide] | > 7.00
6 | Cc1c(F)cccc1S(=O)(=O)Nc1ccc2c(c1)CN(C(=O)OC(C)(C)C)CC2 [Compound 4] | < 6.00
7 | CC1(C)CC(O)c2cc(NS(=O)(=O)c3cccc(Cl)c3Cl)ccc21 (racemic) [Compound 274, 2,3-dichloro-N-(3-hydroxy-1,1-dimethyl-2,3-dihydro-1H-inden-5-yl)benzenesulfonamide] | > 7.00
8 | CC(Nc1ccc2nc[nH]c(=O)c2c1)c1c(Cl)ccc(F)c1Cl (single isomer, unassigned) [Example 201A] | < 6.00
9 | C[C@@H](Nc1ccc2cc[nH]c(=O)c2c1)c1nccc(Cl)c1Cl (single isomer, unassigned) [Example 194A, (S or R)-7-((1-(3,4-dichloropyridin-2-yl)ethyl)amino)isoquinolin-1(2H)-one] | > 7.00
10 | CN1C(=O)C(C)(C)c2ccc(NS(=O)(=O)c3cccc(Cl)c3Cl)cc21 [Compound 211, 2,3-dichloro-N-(1,3,3-trimethyl-2-oxoindolin-6-yl)benzenesulfonamide] | > 7.00
11 | Cc1n[nH]c2cc(NS(=O)(=O)c3cccc(Cl)c3Cl)cc(F)c12 [Compound 73, 2,3-dichloro-N-(4-fluoro-3-methyl-1H-indazol-6-yl)benzenesulfonamide] | > 7.00
12 | CC1(C)C(=O)N(CC(=O)N2CCCCC2)c2cc(NS(=O)(=O)c3cccc(Cl)c3Cl)ccc21 [Example 286, 2,3-dichloro-N-(3,3-dimethyl-2-oxo-1-(2-oxo-2-(piperidin-1-yl)ethyl)indolin-6-yl)benzenesulfonamide] | > 7.00
13 | CC1(C)c2ccc(NS(=O)(=O)c3cccc(Cl)c3Cl)cc2C(=O)N1CCO [Compound 303] | 6.30 to 7.00
14 | COc1nccc2ccc(NC(C)c3c(Cl)nn(C)c3Cl)cc12 (racemic) [Compound 248, N-(1-(3,5-dichloro-1-methyl-1H-pyrazol-4-yl)ethyl)-1-methoxyisoquinolin-7-amine] | 6.30 to 7.00
15 | CC1(C)CC(C#N)c2cc(NS(=O)(=O)c3cccc(Cl)c3Cl)ccc21 (racemic) [Compound 298, 2,3-dichloro-N-(3-cyano-1,1-dimethyl-2,3-dihydro-1H-inden-5-yl)benzenesulfonamide] | > 7.00
16 | CC(Nc1ccc2cn[nH]c2c1)c1nc(Cl)c(Cl)s1 (racemic) [Compound 249, N-(1-(4,5-dichlorothiazol-2-yl)ethyl)-1H-indazol-6-amine] | > 7.00
17 | Cc1n[nH]c(=O)c2cc(NC(CO)c3c(Cl)ccc(F)c3Cl)ccc12 (racemic) [Example 250, 7-[[1-(2,6-dichloro-3-fluoro-phenyl)-2-hydroxy-ethyl]amino]-4-methyl-2H-phthalazin-1-one] | > 7.00
18 | O=C1CCCc2ccc(NS(=O)(=O)c3cccc(Cl)c3Cl)cc2N1 [Compound 84, 2,3-dichloro-N-(2-oxo-2,3,4,5-tetrahydro-1H-benzo[b]azepin-8-yl)benzenesulfonamide] | > 7.00
19 | O=C1NCCc2ccc(NS(=O)(=O)N3C4CCCC3CC4)cc21 [Example 166, N-(1-oxo-1,2,3,4-tetrahydroisoquinolin-7-yl)-8-azabicyclo[3.2.1]octane-8-sulfonamide] | < 6.00
20 | O=S(=O)(Nc1ccc2ccncc2c1)c1cccc(Cl)c1Cl [Compound 43, 2,3-dichloro-N-(isoquinolin-7-yl)benzenesulfonamide] | 6.30 to 7.00

Row | Structure (SMILES) | pIC50
21 | CC1(C)C(=O)Nc2cc(NS(=O)(=O)c3cccc(Cl)c3Cl)ccc21 [Compound 204, 2,3-dichloro-N-(3,3-dimethyl-2-oxo-indolin-6-yl)benzenesulfonamide] | > 7.00
22 | Cc1cc(F)cc(C2(Nc3ccc4c(c3)C(=O)N(C)CC4)COC2)c1 [Example 175, 7-((3-(3-fluoro-5-methylphenyl)oxetan-3-yl)amino)-2-methyl-3,4-dihydroisoquinolin-1(2H)-one] | < 6.00
23 | CC(Nc1ccc2c(c1)C(=O)NCC2)c1cccc(F)c1F (racemic) [Example 106, 7-((1-(2,3-difluorophenyl)ethyl)amino)-3,4-dihydroisoquinolin-1(2H)-one] | < 6.00
24 | CC(Nc1cc(F)c2ncn(-c3ccn[nH]3)c(=O)c2c1)c1nc(Cl)c(Cl)s1 (single isomer, unassigned) [Example 356A] | < 6.00
25 | CC(C)(O)C(Nc1ccc2cc[nH]c(=O)c2c1)c1cccc(Cl)c1Cl (racemic) [Compound 253, 7-((1-(2,3-dichlorophenyl)-2-hydroxy-2-methylpropyl)amino)isoquinolin-1(2H)-one] | > 7.00
26 | CC1(C)C(=O)N(Cc2ccncc2)c2cc(NS(=O)(=O)c3cccc(Cl)c3Cl)ccc21 [Compound 309, 2,3-dichloro-N-(3,3-dimethyl-2-oxo-1-(pyridin-4-ylmethyl)indolin-6-yl)benzenesulfonamide] | > 7.00
27 | CC1(C)C(=O)N(CCC(N)=O)c2cc(NS(=O)(=O)c3cccc(Cl)c3Cl)ccc21 [Compound 279, 3-(6-((2,3-dichlorophenyl)sulfonamido)-3,3-dimethyl-2-oxoindolin-1-yl)propanamide] | > 7.00
28 | CC1(C)CN(C(=O)CC(N)=O)c2cc(NS(=O)(=O)c3cccc(Cl)c3Cl)ccc21 [Compound 299, 3-(6-((2,3-dichlorophenyl)sulfonamido)-3,3-dimethylindolin-1-yl)-3-oxopropanamide] | > 7.00
29 | CCC(Nc1ccc2nc[nH]c(=O)c2c1)c1nccc(Cl)c1Cl (racemic) [Example 155, 6-((1-(3,4-dichloropyridin-2-yl)propyl)amino)quinazolin-4(3H)-one] | 6.30 to 7.00
30 | COc1nccc(C(C)Nc2ccc3c(c2)C(=O)NCC3)c1Cl (single isomer, unassigned) [Example 95] | 6.00 to 6.30
31 | CC(Nc1cc(F)c2ncn(C3CC(O)C3)c(=O)c2c1)c1nc(Cl)c(Cl)s1 (stereo not shown) [Compound 340, 6-((1-(4,5-dichlorothiazol-2-yl)ethyl)amino)-8-fluoro-3-(3-ydroxycyclobutyl)quinazolin-4(3H)-one] | > 7.00
32 | O=S(=O)(Nc1ccc2ccccc2n1)c1cccc(Cl)c1Cl [Compound 60, 2,3-dichloro-N-(quinolin-2-yl)benzenesulfonamide] | < 6.00
33 | Cc1c2c(F)cc(NC(C)c3nc(Cl)c(Cl)s3)cc2nn1CC(N)=O (single isomer, unassigned) [Compound 390] | < 6.00
34 | CC(Nc1cc(F)c2ncn(CCO)c(=O)c2c1)c1nc(Cl)c(Cl)s1 (racemic) [Compound 297, 6-((1-(4,5-dichlorothiazol-2-yl)ethyl)amino)-8-fluoro-3-(2-hydroxyethyl)quinazolin-4(3H)-one] | > 7.00
35 | CC(Nc1ccc2c(c1)NC(=O)OC2)c1cccc(Cl)c1Cl (stereo not shown) [Example 181, 7-((1-(2,3-dichlorophenyl)ethyl)amino)-1,4-dihydro-2H-benzo[d][1,3]oxazin-2-one] | 6.30 to 7.00
36 | O=C1NCCc2ccc(NS(=O)(=O)N3C[C@@H]4CC[C@H]3C4)cc21 (racemic) [Example 167, N-(1-oxo-1,2,3,4-tetrahydroisoquinolin-7-yl)-2-azabicyclo[2.2.1]heptane-2-sulfonamide] | < 6.00
37 | Cc1cn(CC(N)=O)c(=O)c2nc(NC(C)c3nn(C)c(Cl)c3Cl)ccc12 (racemic) [Compound 324, 2-(2-((1-(4,5-dichloro-1-methyl-1H-pyrazol-3-yl)ethyl)amino)-5-methyl-8-oxo-1,7-naphthyridin-7(8H)-yl)acetamide] | > 7.00
38 | CCC(Nc1ccc2cc[nH]c(=O)c2c1)c1nccc(Cl)c1Cl (racemic) [Example 153, 7-((1-(3,4-dichloropyridin-2-yl)propyl)amino)isoquinolin-1(2H)-one] | > 7.00
39 | Cc1nc(C(C)Nc2ccc3cc[nH]c(=O)c3c2)sc1Cl (racemic) [Compound 207, 7-((1-(5-chloro-4-methylthiazol-2-yl)ethyl)amino)isoquinolin-1(2H)-one] | > 7.00
40 | Cc1cccc(C(C)Nc2ccc3c(c2)C(=O)NCC3)c1F (racemic) [Example 99, 7-((1-(2-fluoro-3-methylphenyl)ethyl)amino)-3,4-dihydroisoquinolin-1(2H)-one] | < 6.00
